Test results from patent US9458104B2 (priority 2012, dated 2016).

Legend:
[1] = biological target: T1, RORγ ligand binding domain (LBD) (Homo sapiens, UniProt P51449); assay: TR-FRET Activity Assay (ligand sensing assay, RORγ-LBD / coactivator peptide interaction); assay type: biochemical
T1 construct: made in house; host or cells: E. coli BL-21 (BL3), vector pDEST15
T1 sequence (P51449 269-508 limits assumed): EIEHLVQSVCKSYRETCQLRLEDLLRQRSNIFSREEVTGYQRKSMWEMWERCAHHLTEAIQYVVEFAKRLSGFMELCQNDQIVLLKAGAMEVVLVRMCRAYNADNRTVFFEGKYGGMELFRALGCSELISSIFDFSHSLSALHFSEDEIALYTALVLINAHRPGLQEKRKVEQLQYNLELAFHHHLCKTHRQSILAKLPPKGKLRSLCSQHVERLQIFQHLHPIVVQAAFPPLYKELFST
In short: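 GST-RORγ LBD expressed in bacteria, 20–60 ng/well, with biotinylated coactivator peptide 200–600 nM, streptavidin-APC and Eu-anti-GST. Buffer: 20 mM Tris-HCl pH 6.8, 60 mM KCl, 1 mM DTT, 5 mM MgCl2, BSA; 1% DMSO. LANCE TR-FRET 665/615 nm ratio; IC50 from four-parameter logistic fit.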

RORγ = biological target: T2, RORγ (UniProt P51449); assay type: cell-based; conditions: 293T cells, 16 h; for pIC50 (FF): firefly (FF) luciferase; for pIC50 (REN): renilla normalised (RENnorm) luciferase
T2 construct: hRORg-LBD|aa259-518|NP_005051.2; hRORgt|aa1-497|NP_001001523 (RORg, t isoform, 497aa); mRORg-LBD|aa264-516|NP_035411
T2 sequence (P51449 1-518): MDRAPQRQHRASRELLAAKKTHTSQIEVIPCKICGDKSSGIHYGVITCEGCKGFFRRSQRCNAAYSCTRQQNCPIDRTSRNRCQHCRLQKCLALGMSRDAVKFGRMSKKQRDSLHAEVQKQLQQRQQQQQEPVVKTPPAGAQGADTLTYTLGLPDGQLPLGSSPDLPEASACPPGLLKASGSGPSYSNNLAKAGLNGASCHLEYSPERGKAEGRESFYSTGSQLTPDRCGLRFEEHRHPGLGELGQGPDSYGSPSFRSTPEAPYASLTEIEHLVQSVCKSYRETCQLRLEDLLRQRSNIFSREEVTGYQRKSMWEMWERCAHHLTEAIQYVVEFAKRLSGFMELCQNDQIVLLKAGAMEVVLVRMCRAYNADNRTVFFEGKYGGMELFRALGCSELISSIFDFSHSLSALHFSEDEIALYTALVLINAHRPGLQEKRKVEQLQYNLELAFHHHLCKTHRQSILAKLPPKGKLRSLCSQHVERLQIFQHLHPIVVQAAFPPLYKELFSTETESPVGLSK

Q: Which results are given for `Cn1c(C(=O)NCCC(C)(C)C(=O)O)cc(-c2cc(C(C)(C)C)cc(C3(C)CC3)c2)c1CC1CCCCC1` [8/10]?
A: IC50 [1]: 794 nM; pIC50 (FF) (RORγ): 7.4; pIC50 (REN) (RORγ): 7.5

Q: `Cn1c(C(=O)N[C@H]2C[C@H](C(=O)O)C2)cc(-c2cc(C(C)(C)C)cc(C3(C)CC3)c2)c1C(=O)C1CCCCC1` [Example 26, trans-3-(4-(3-(tert-Butyl)-5-(1-methylcyclopropyl)phenyl)-5-(cyclohexanecarbonyl)-1-methyl-1H-pyrrole-2-carboxamido)cyclobutanecarboxylic acid] was tested. Which IC50 [1] did it give?
A: 501 nM

Q: What about the “pIC50 (FF)” value (RORγ) of the same compound?
A: 8.5

Q: What about the “pIC50 (REN)” value (RORγ) of the same compound?
A: 8.5

Q: How did the IC50 [1] turn out when `CCS(=O)(=O)c1ccc(CNC(=O)c2cc(-c3ccc(S(=O)(=O)NC(C)(C)C)c(C(F)(F)F)c3)n(CC3CCCCC3)c2C)cc1` [Example 302, 5-(4-(N-(tert-Butyl)sulfamoyl)-3-(trifluoromethyl)phenyl)-1-(cyclohexylmethyl)-N-(4-(ethylsulfonyl)benzyl)-2-methyl-1H-pyrrole-3-carboxamide] was run?
A: 6.31 nM

Q: What about the “pIC50 (FF)” value (RORγ) of the same compound?
A: 7.6

Q: What about the “pIC50 (REN)” value (RORγ) of the same compound?
A: 7.8

Q: Which results are given for `CC(C)(C)NS(=O)(=O)c1ccc(-c2cc(C(=O)N[C@H]3C[C@H](C(=O)O)C3)nn2CC2CCCCC2)cc1C(C)(C)C` [100/3]?
A: IC50 [1]: 794 nM; pIC50 (FF) (RORγ): 7.0; pIC50 (REN) (RORγ): 7.1
